# Paper PMC7913927, “Leishmanicidal Activity of Betulin Derivatives in Leishmania amazonensis; Effect on Plasma and Mitochondrial Membrane Potential, and Macrophage Nitric Oxide and Superoxide Production” (Microorganisms, 2021)
# Values joined by “and” are separate entries in the source; they are usually repeats but may differ in a detail not shown here. Equal entries are not always repeated. Where two headings read alike, the source gives them in different places.
# Key:
# [1] = tested on: J774.1 macrophages; test: Cytotoxicity (Alamar Blue) in macrophages; assay type: cell-based, murine; settings: 72 h
# Protocol: In flat-bottom 96-well culture plates, J774.1 macrophages were seeded at a cell density of 5 × 10^4 mL^−1 (10,000 macrophages/well) in 200 µL of RPMIc. After 24 h at 37 °C, 5% CO2, medium was replaced by 180 µL of RPMIc, without phenol red, and increasing concentrations of test compounds in 2-µL volumes. […] At least two independent experiments were performed in duplicate. Based on the inhibition of cell growth caused by the tested compounds, the percentage of growth inhibition compared to untreated cells was calculated. […] Selectivity indices (SI) were calculated, dividing the macrophage CC50 by the parasites GI50 (SI = CC50/GI50).
# [2] = tested on: VE98MR intracellular amastigotes in J774.1 macrophages; test: Macrophage-amastigote model, patient isolate VE98MR; assay type: cell-based, Leishmania amazonensis; settings: for Regresion (GraphPad 6) of %Control vs dose (50% inhibitory concentration) / Growth (%) Exp1 %Control / Growth (%) Exp1 A/100MØ / Growth (%) Exp1 A/MØ / Growth (%) Exp1 Infección / Growth (%) Exp2 %Control / Growth (%) Exp2 A/100MØ / Growth (%) Exp2 A/MØ / Growth (%) Exp2 Infección / Growth (%) Exp3 %Control / Growth (%) Exp3 A/100MØ / Growth (%) Exp3 A/MØ / Growth (%) Exp3 Infección / Average A/100MØ: VE98MR; for Regresion (GraphPad 6) of %Control vs dose (50% inhibitory concentration): unit from Dose head; for Average A/100MØ: average of Exp1-3
# Protocol: We used a previously described methodology, with some modifications. Macrophage monolayers, grown in RMPIc medium, for 3 days, were detached from the bottom of the culture chamber, by physical treatment (low temperature and light strokes). Obtained macrophages were seeded in flat-bottom 96-well culture plates, at a density of 2 × 10^5 cells mL^−1 (40,000 macrophages/well), in a final volume of 200 µL. Plates were incubated for 2 h, and the supernatant was discarded to remove non-adhered macrophages. Medium was replaced with stationary-phase promastigotes suspended in 200 µL of RPMIc (2 × 10^6 parasites mL^−1, 400,000 parasites/well), at a macrophage: parasite ratio 1:10 [40]. The plates were incubated for 4 h. Afterwards the medium was replaced with fresh RPMIc and increasing concentrations of compounds or drugs tested were applied, in volumes of 2 µL, according to the different treatment groups. Plates were kept for 72 h, at 37 °C and 5% CO2. The medium was discarded and the wells were washed twice with PBS. Next, a Giemsa staining was performed in situ. It consisted of adding 200 µL of methanol/well, incubating for 5 min, discarding the fixative, and letting it dry at room temperature. Later, the Giemsa solution (10% in PBS w/v, 200 µL/well) was added, incubated for 10 min, and washed with PBS, allowing it to dry. Finally, the bottom of the plates was detached by percussion and the circular bottoms (wells) were fixed to slides with Permount synthetic resin, for later evaluation (Alcazar W., manuscript in preparation). Cell counting was performed with a 100× immersion objective. A minimum of 200 random macrophages were examined. The percentage of infected macrophages (% infection) and the average number of amastigotes present in infected macrophages (amastigotes) were determined. […] The infection rate represents the number of intracellular amastigotes per 100 macrophages evaluated. Additionally, the GI50 for the decrease in the infection rate was calculated. At least three independent experiments were performed. The effect of amphotericin-B (AmB) [Sigma-Aldrich, (St. Louis, MO, USA)] was included as positive control of the assay.
structure (smiles),measurement,setting,value
C=C(C)C1CCC2(C=NO)CCC3(C)C(CCC4C5(C)CCC(=NO)C(C)(C)C5CCC43C)C12 (centres unmarked) [Compound 18],CC50,[1],48100 nM
same,SI (CC50/GI50) VE98MR,"[2]; J774.1 CC50 / intracellular amastigote GI50, Table 2",27.32
same,GI50,"[2]; VE98MR intracellular amastigotes, read-out: GI50 (µM) Experiment 1 Regresion",0.65 µM
same,GI50,"[2]; VE98MR intracellular amastigotes, read-out: GI50 (µM) Experiment 2 Regresion",1.09 µM
same,GI50,"[2]; VE98MR intracellular amastigotes, read-out: GI50 (µM) Experiment 3 Regresion",0.89 µM
same,Regresion (GraphPad 6) of %Control vs dose (50% inhibitory concentration),[2]; Exp1,0.65 µM
same,Regresion (GraphPad 6) of %Control vs dose (50% inhibitory concentration),[2]; Exp2,1.09 µM
same,Regresion (GraphPad 6) of %Control vs dose (50% inhibitory concentration),[2]; Exp3,0.89 µM
same,Growth (%) Exp1 %Control,"[2]; dose 0.10 µM, Exp1",72.90%
same,Growth (%) Exp1 A/100MØ,"[2]; dose 0.10 µM, Exp1",117.33
same,Growth (%) Exp1 A/MØ,"[2]; dose 0.10 µM, Exp1",2.20
same,Growth (%) Exp1 Infección,"[2]; dose 0.10 µM, Exp1",53.33%
same,Growth (%) Exp2 %Control,"[2]; dose 0.10 µM, Exp2",77.33%
same,Growth (%) Exp2 A/100MØ,"[2]; dose 0.10 µM, Exp2",159.61
same,Growth (%) Exp2 A/MØ,"[2]; dose 0.10 µM, Exp2",2.67
same,Growth (%) Exp2 Infección,"[2]; dose 0.10 µM, Exp2",59.78%
same,Growth (%) Exp3 %Control,"[2]; dose 0.10 µM, Exp3",82.84%
same,Growth (%) Exp3 A/100MØ,"[2]; dose 0.10 µM, Exp3",205.27
same,Growth (%) Exp3 A/MØ,"[2]; dose 0.10 µM, Exp3",3.68
same,Growth (%) Exp3 Infección,"[2]; dose 0.10 µM, Exp3",55.78%
same,Average A/100MØ,[2]; dose 0.10 µM,160.74
same,Growth (%) Exp1 %Control,"[2]; dose 0.50 µM, Exp1",57.32%
same,Growth (%) Exp1 A/100MØ,"[2]; dose 0.50 µM, Exp1",92.25
same,Growth (%) Exp1 A/MØ,"[2]; dose 0.50 µM, Exp1",2.05
same,Growth (%) Exp1 Infección,"[2]; dose 0.50 µM, Exp1",45.00%
same,Growth (%) Exp2 %Control,"[2]; dose 0.50 µM, Exp2",61.05%
same,Growth (%) Exp2 A/100MØ,"[2]; dose 0.50 µM, Exp2",125.99
same,Growth (%) Exp2 A/MØ,"[2]; dose 0.50 µM, Exp2",2.20
same,Growth (%) Exp2 Infección,"[2]; dose 0.50 µM, Exp2",57.27%
same,Growth (%) Exp3 %Control,"[2]; dose 0.50 µM, Exp3",73.43%
same,Growth (%) Exp3 A/100MØ,"[2]; dose 0.50 µM, Exp3",181.96
same,Growth (%) Exp3 A/MØ,"[2]; dose 0.50 µM, Exp3",3.24
same,Growth (%) Exp3 Infección,"[2]; dose 0.50 µM, Exp3",56.16%
same,Average A/100MØ,[2]; dose 0.50 µM,133.40
same,Growth (%) Exp1 %Control,"[2]; dose 1.00 µM, Exp1",48.73%
same,Growth (%) Exp1 A/100MØ,"[2]; dose 1.00 µM, Exp1",78.42
same,Growth (%) Exp1 A/MØ,"[2]; dose 1.00 µM, Exp1",2.26
same,Growth (%) Exp1 Infección,"[2]; dose 1.00 µM, Exp1",34.70%
same,Growth (%) Exp2 %Control,"[2]; dose 1.00 µM, Exp2",59.91%
same,Growth (%) Exp2 A/100MØ,"[2]; dose 1.00 µM, Exp2",123.65
same,Growth (%) Exp2 A/MØ,"[2]; dose 1.00 µM, Exp2",2.80
same,Growth (%) Exp2 Infección,"[2]; dose 1.00 µM, Exp2",44.16%
same,Growth (%) Exp3 %Control,"[2]; dose 1.00 µM, Exp3",42.96%
same,Growth (%) Exp3 A/100MØ,"[2]; dose 1.00 µM, Exp3",106.46
same,Growth (%) Exp3 A/MØ,"[2]; dose 1.00 µM, Exp3",2.36
same,Growth (%) Exp3 Infección,"[2]; dose 1.00 µM, Exp3",45.11%
same,Average A/100MØ,[2]; dose 1.00 µM,102.84
same,Growth (%) Exp1 %Control,"[2]; dose 5.00 µM, Exp1",16.08%
same,Growth (%) Exp1 A/100MØ,"[2]; dose 5.00 µM, Exp1",25.87
same,Growth (%) Exp1 A/MØ,"[2]; dose 5.00 µM, Exp1",1.60
same,Growth (%) Exp1 Infección,"[2]; dose 5.00 µM, Exp1",16.17%
same,Growth (%) Exp2 %Control,"[2]; dose 5.00 µM, Exp2",28.34%
same,Growth (%) Exp2 A/100MØ,"[2]; dose 5.00 µM, Exp2",58.49
same,Growth (%) Exp2 A/MØ,"[2]; dose 5.00 µM, Exp2",2.35
same,Growth (%) Exp2 Infección,"[2]; dose 5.00 µM, Exp2",24.89%
same,Growth (%) Exp3 %Control,"[2]; dose 5.00 µM, Exp3",8.53%
same,Growth (%) Exp3 A/100MØ,"[2]; dose 5.00 µM, Exp3",21.14
same,Growth (%) Exp3 A/MØ,"[2]; dose 5.00 µM, Exp3",1.13
same,Growth (%) Exp3 Infección,"[2]; dose 5.00 µM, Exp3",18.71%
same,Average A/100MØ,[2]; dose 5.00 µM,35.17
same,Growth (%) Exp1 %Control,"[2]; dose 10.00 µM, Exp1",3.99%
same,Growth (%) Exp1 A/100MØ,"[2]; dose 10.00 µM, Exp1",6.42
same,Growth (%) Exp1 A/MØ,"[2]; dose 10.00 µM, Exp1",1.33
same,Growth (%) Exp1 Infección,"[2]; dose 10.00 µM, Exp1",4.83%
same,Growth (%) Exp2 %Control,"[2]; dose 10.00 µM, Exp2",9.85%
same,Growth (%) Exp2 A/100MØ,"[2]; dose 10.00 µM, Exp2",20.33
same,Growth (%) Exp2 A/MØ,"[2]; dose 10.00 µM, Exp2",1.50
same,Growth (%) Exp2 Infección,"[2]; dose 10.00 µM, Exp2",13.55%
same,Growth (%) Exp3 %Control,"[2]; dose 10.00 µM, Exp3",11.25%
same,Growth (%) Exp3 A/100MØ,"[2]; dose 10.00 µM, Exp3",27.88
same,Growth (%) Exp3 A/MØ,"[2]; dose 10.00 µM, Exp3",1.35
same,Growth (%) Exp3 Infección,"[2]; dose 10.00 µM, Exp3",20.65%
same,Average A/100MØ,[2]; dose 10.00 µM,18.21
same,GI50,"[2]; intracellular amastigotes, Supplementary Materials II, read-out: GI50 (µM) VE98MR, mean of three experiments",0.877 µM and 0.88 µM
